# Ends that are not written are not given here.
# B1: 190-243 polypeptide fragment of human apoA-I (SEQ ID NO: 1) (peptide, not shown: small tags and cut ends)
# chain: AEYHAKATEHLSTLSEKAKPALEDLRQGLLPVLESFKVSFLSALEEYTKKLNTQ
# modifications: also: N-terminal hexa-His tag (letters not given here)
# notes: Recombinant, expressed in E. coli
# Experiments:
# [1] = test system: AMPK; test: Western blot for phosphorylated AMPK in L6 myotube lysates; assay type: cell-based; conditions: L6 myotubes, 60 minutes; rHDL 700 μg/ml apoA-I; phenformin 0.4 mmol/l; FIG. 3a,b
# Method: (§1) Prior to stimulation or treatment cultured myoblast cells were serum starved for 4 hours in serum-free α-MEM and all subsequent treatments, including insulin or phenformin as positive controls (Sigma), were performed in serum free a-MEM. After treatments, cells were washed with ice cold PBS buffer and lysed on ice using a non-denaturing lysis buffer (1% Triton X-100, 50 mmol/l Tris, 150 mmol/l NaCl, pH 8.0) containing protease and phosphatase inhibitors (Roche). Lysates were centrifuged at 16,000×g, 20 minutes at 4° C. and BCA protein assay (Pierce) was performed on supernatants. Equal protein amounts were separated by SDS-PAGE and transferred to nitrocellulose membranes. pAMPK, AMPK, pACC, pAkt, Akt and tubulin were used for immunodetection with IRDye 800CW and 680RD secondary antibodies (LI-COR). Blots were imaged using the Odyssey Fc system and quantified using Image studio v2.0 software.
# To dissect the effect of discoidal rHDL on a non-insulin dependent signaling pathway, we conducted western blotting using lysates from L6 myotubes incubated with rHDL. […] Phenformin was used as a positive control, inducing a 1.98±0.33-fold (p=≦0.05) and 2.7±0.74-fold (p=≦0.05) elevation of phosphorylated AMPK and ACC, respectively, at a concentration of 0.4 mmol/l. […] Representative immunoblots of those quantified for FIGS. 3a, c and f are given in FIGS. 3b, d and e, respectively. […]
# [2] = test system: ACC; test: Western blot for phosphorylated ACC in L6 myotube lysates; assay type: cell-based; conditions: L6 myotubes, 60 minutes; rHDL 700 μg/ml apoA-I; phenformin 0.4 mmol/l; FIG. 3c,d
# Method: as §1
# To dissect the effect of discoidal rHDL on a non-insulin dependent signaling pathway, we conducted western blotting using lysates from L6 myotubes incubated with rHDL. […] Phenformin was used as a positive control, inducing a 1.98±0.33-fold (p=≦0.05) and 2.7±0.74-fold (p=≦0.05) elevation of phosphorylated AMPK and ACC, respectively, at a concentration of 0.4 mmol/l. […] Representative immunoblots of those quantified for FIGS. 3a, c and f are given in FIGS. 3b, d and e, respectively.
# [3] = test system: insulin resistant C57Bl/6 mice; test: Glucose tolerance test in high-fat diet fed (HFD) mice; assay type: in vivo, mouse; conditions: glucose load 3 hours later
# Method: Male C57BL/6 mice (Taconic) were used at 9-12 weeks of age. Animals were on a 12 hour light cycle with non-restricted food and water. The HFD animals were fed an HFD (D12492, 60% fat content; Research Diets) for 2 weeks. All animal procedures were approved by the Malmo/Lund Committee for Animal Experiment Ethics, Lund, Sweden. HFD mice fasted overnight (12 hours) were injected intra peritoneal (i.p.) with apoA-I peptides as listed above ([…] in PBS pH 7.4 for the 54-mer fragment and 6-7 mg/kg for other fragments in PBS, pH 7.4; control animals received NaCl) and this was followed by collection of serum samples at the indicated times. Glucose (50 mg/mouse) was injected i.p. 3 hours after treatments, followed by collection of serum samples at the indicated times. Blood glucose levels were measured (OnetouchUltra2; Lifescan), and insulin levels were assayed in serum using ELISA (Mercodia).
# [4] = test system: L6 myotubes; test: Glucose uptake in L6 myotubes (2-[3H]-deoxy-D-glucose); assay type: cell-based; conditions: 2 h serum starved, 50 μg/ml (1.6 μmol/l) apoA-I or 100 nmol/l insulin, 1 hour, FIG. 1b
# Method: L6 myoblasts (ATCC #CRL-1458) were grown in α-MEM (Invitrogen) supplemented with 10% FBS (Sigma) and 1% antibiotic/antimycotic (Penicillin, streptomycin, amphotericin B; Invitrogen). Differentiation to myotubes was achieved by switching from growth media to 2% FBS a-MEM for 6-7 or 6-12 days. Cells were maintained at 37° C. and 5% CO2.
# Prior to stimulation (or treatment) cells were starved for 2 hours in serum-free a-MEM and all subsequent treatments, which were performed in triplicate and included cytochalasin B (Sigma) as a measure of cell associated non-specific radioactivity, were performed in uptake buffer (140 mmol/l NaCl, 20 mmol/l HEPES, 5 mmol/l KCl, 2.5 mmol/l MgSO4, 1 mmol/l CaCl2, pH 7.4). After stimulation, treatments were replaced with 10 μmol/l 2-deoxy-D-glucose (Sigma), 10 μmol/l 2-[3H]-deoxy-D-glucose (Perkin Elmer) in uptake buffer for 15 mins at room temperature. Cells were then washed twice with ice cold PBS and lysed with 1 mol/l NaOH on ice. Lysates were collected and radioactivity quantified by scintillation counting.
# In order to investigate the effect of discodial HDL (rHDL) on GLUT4 translocation and glucose uptake, we produced recombinant human apoA-I and reconstituted HDL needed for cell incubations. L6 myotubes were incubated with 50 μg/ml (1.6 μmol/l) apoA-I for 1 hour followed by a glucose uptake assay as described above. […] Next, L6 myotubes were treated by incubation with 50 μg/ml discodial rHDL (expressed as total concentration of apoA-I in rHDL, given 2 apoA-I molecules per particle) for 1 hour. […] This experiment was thereafter repeated in more controlled manner including cell number and quality (cells were similarly treated during differentiation from myoblasts to multinuclear myotubes, with respect to the time between splitting cells, cell density, passage of cells used.) (FIG. 7c).
# The relative effect of specific regions of apoA-I to increase glucose uptake was investigated using truncated protein fragments corresponding to residues 1-189 (N-terminal/central domain), 44-189 (central domain), 44-243 (central/C-terminal domain) and 190-243 (C-terminal domain) of full-length apoA-I (FIG. 4a). The treatments with incubation of truncated protein fragments were performed as described above for treatment of L6 myotubes with full-length apoA-I and followed by a glucose uptake assay as described above.
# To test for the contribution of the constituent phospholipid to rHDL-induced glucose uptake in L6 myotubes, rHDL made with DMPC was also produced and compared to 100 nm DMPC vesicles containing no apoA-I protein. Stable 100 nm diameter vesicles can be synthesized with DMPC in the absence of apoA-I and was therefore used as a phospholipid control. The effect on the glucose uptake was tested as described above. […] To also test for the contribution of the constituent POPC phospholipid to rHDL-induced glucose uptake, rHDL made with POPC was compared with 100 nm POPC vesicles containing no apoA-I protein.
# [5] = Circular dichroism spectroscopy, alpha-helical content; assay type: physicochemical; conditions: 0.2 mg/ml in PBS pH 7.4, 25° C.
# Method: CD measurements were performed on a Jasco J-810 spectropolarimeter equipped with a Jasco CDF-4265 Peltier set to 25° C. ApoA-I (full-length and the 190-234 polypeptide fragment) was diluted to 0.2 mg/ml in PBS (final concentration was 25 mmol/l phosphate, 25 mmol/l NaCl, pH 7.4), placed in a 0.1 mm quartz cuvette and, after extensive purging with nitrogen, scanned in the region 200 to 260 nm (scan speed was 20 nm/min). Averages of five scans were baseline-subtracted (PBS; 25 mmol/l phosphate, 25 mmol/l NaCl) and the alpha-helical content was calculated from the molar ellipticity at 222 nm as previously described (Petrlova et al. (2012) J Lipid Res 53: 390-398).
# [6] = apo-state versus discoidal HDL; Saito et al. (2004); cited from earlier work
# [7] = biological target: the molecule itself; test: blue native PAGE, coomassie stained; self-association (homo-oligomer) in solution and after 1 hour with L6 myotubes
# From the text: It is known that the 190-234 polypeptide fragment can form discoidal particles by solubilisation of lipid in solution (Vedhachalan et al. (2010) J Biol Chem 285:31965-31973), which can be visualised as oligomers on native PAGE. […] Lipid-free apoA-I and rHDL were included on the gel as a full length protein monomer and dimer reference.
# [8] = 18-mer peptides, single injection 7 mg/kg, FIG. 12
# [9] = 23- or 27-mer peptides, single injection 6-7 mg/kg, FIG. 11
molecule,measurement,setting,value
"[H]/N=C(/N)N/C(=N/[H])NCCc1ccccc1 [Phenformin, phenformin, reference compound]",levels of phosphorylated AMPK,[1],1.98±0.33 fold
same,levels of phosphorylated ACC,[2],2.7±0.74 fold
SEQ ID NO: 2: fragment consisting of amino acids 190-207 of human ApoA-I (AEYHAKATEHLSTLSEKA; listed as Homo Sapiens),glucose tolerance capacity / capacity to clear blood glucose (in words),[3]; [8],showed particular increased capacity to clear blood glucose
SEQ ID NO: 4: fragment consisting of amino acids 226-243 of human ApoA-I (KVSFLSALEEYTKKLNTQ; listed as Homo Sapiens),glucose tolerance capacity / capacity to clear blood glucose (in words),[3]; [8],showed particular increased capacity to clear blood glucose
SEQ ID NO: 8: fragment consisting of amino acids 217-243 of human ApoA-I (GLLPVLESFKVSFLSALEEYTKKLNTQ; listed as Homo Sapiens),glucose tolerance capacity / capacity to clear blood glucose (in words),[3]; [9],showed particular increased capacity to clear blood glucose
SEQ ID NO: 518: fragment consisting of amino acids 204-226 of human ApoA-I (SEKAKPALEDLRQGLLPVLESFK; listed as Homo Sapiens),glucose tolerance capacity / capacity to clear blood glucose (in words),[3]; [9],showed particular increased capacity to clear blood glucose
"apoA-I: recombinant full-length human apolipoprotein A-I, amino acids 1-243, lipid-free",increased glucose uptake,[4],1.3 fold
same,helical content from molar ellipticity at 222 nm,[5],43%
same,alpha-helical secondary structure,[6],about 44%
B1,binding result,[7],binds

# Source: patent US20150353626A1, “APOLIPOPROTEIN A-I DERIVED PEPTIDES FOR TREATMENT OF HYPERGLYCAEMIA” (priority 2013, published 2015)
